Reference: patent publication US7807701B2, “Dibenzylamine compounds and pharmaceutical use thereof” (Japan Tobacco Inc., priority 2002, dated 2010)

Legend:
CETP [1] = test: Inhibitory effect exo vivo on CETP activity in total plasma of normal hamster; settings: blood taken 2 hr after administration, average values
Experimental: Potassium bromide (KBr) was added to plasma (40 mL) of healthy subject and the mixture was adjusted to have a specific density d=1.125 g/mL. The mixture was subjected to density gradient centrifugation (227,000×g, 4° C., 17 hr) and a fraction showing a specific density of d>1.125 g/mL (HDL3 fraction) was harvested. The obtained fraction was dialyzed against PBS solution [10 mmol/L Na2HPO4; 10 mmol/L NaH2PO4; 0.15 mol/L NaCl; […] (pH 7.4)]. Then, tritium-labeled cholesterol (37 MBq) was dissolved in 95% ethanol, gradually added to the above-mentioned HDL3 fraction with stirring and incubated at 37° C. for 18 hr. [By this operation, tritium-labeled cholesterol was esterified by the action of lecithin acyl transferase (LCAT) present on the HDL3 surface and taken up into HDL3 as tritium-labeled cholesteryl ester ([^3H]CE)]. After incubation, KBr was added, the mixture was adjusted to have a specific density d=1.21 g/mL, subjected to density gradient centrifugation (227,000×g, 4° C., 17 hr) and a fraction of specific density […] was harvested. The obtained fraction was dialyzed against the aforementioned PBS solution to give HDL3 incorporating [^3H]CE ([^3H]CE-HDL3, specific density: 1.125<d<1.21, specific activity: 10,000 dpm/μL), which was used as a donor lipoprotein.
The compound of the present invention was suspended in 0.5% methyl cellulose solution and orally administered once to a healthy hamster with a plastic gavage needle. Blood was taken at 2 or 4 hr after the administration and CETP activity in plasma was measured according to the following method.
The donor lipoprotein obtained above was added to hamster plasma (100 μL) to prepare [^3H]CE-HDL3-containing plasma (ca. 1,000 dpm/μL). The [^3H]CE-HDL3-containing plasma was dispensed to two microtubes by 25 μL each, and one was incubated at 37° C. and the other was incubated at 4° C. for 4 hr each. After ice-cooling, TBS solution (50 μl) containing 1 mol/L magnesium chloride and 2% dextran sulfate was added to each microtube and the mixture was thoroughly stirred. After keeping at […] for 30 min, the mixture was centrifuged (10,000×g, 4° C., 20 min), and the radioactivity in the obtained supernatant (HDL fraction) was measured with a liquid scintillation counter. The radioactivity of the [^3H]CE-HDL3-containing plasma was measured with a liquid scintillation counter, and taken as the total radioactivity. The transfer rate of [^3H]CE was calculated from the following formula using the total radioactivity (Total count), radioactivity by 37° C. incubation (37° C. count) and radioactivity by 4° C. incubation (4° C. count) of the sample of each individual and taken as the CETP activity. CETP activity(transfer ratio (%))={[(4° C. count)−(37° C. count)]/(Total count)}×100
The CETP activity inhibitory ratio of each compound administration group based on the CETP activity of the solvent administration group as 100% was calculated from the following formula and expressed in %.
CETP activity inhibitory ratio (%)=100−[(CETP activity of each compound administration group)/(CETP activity of solvent administration group)×100]

CETP [2] = molecular target: T1, CETP (Homo sapiens, UniProt P11597); test: Inhibitory effect in vitro on CETP activity in total plasma; type: biochemical; settings: plasma of healthy subject with [3H]CE-HDL3, 37° C., 4 hr; average values
T1 construct: The donor lipoprotein obtained above was added to plasma of healthy subject; from tissue; host or cells: whole plasma of healthy subject
T1 sequence (P11597 18-493): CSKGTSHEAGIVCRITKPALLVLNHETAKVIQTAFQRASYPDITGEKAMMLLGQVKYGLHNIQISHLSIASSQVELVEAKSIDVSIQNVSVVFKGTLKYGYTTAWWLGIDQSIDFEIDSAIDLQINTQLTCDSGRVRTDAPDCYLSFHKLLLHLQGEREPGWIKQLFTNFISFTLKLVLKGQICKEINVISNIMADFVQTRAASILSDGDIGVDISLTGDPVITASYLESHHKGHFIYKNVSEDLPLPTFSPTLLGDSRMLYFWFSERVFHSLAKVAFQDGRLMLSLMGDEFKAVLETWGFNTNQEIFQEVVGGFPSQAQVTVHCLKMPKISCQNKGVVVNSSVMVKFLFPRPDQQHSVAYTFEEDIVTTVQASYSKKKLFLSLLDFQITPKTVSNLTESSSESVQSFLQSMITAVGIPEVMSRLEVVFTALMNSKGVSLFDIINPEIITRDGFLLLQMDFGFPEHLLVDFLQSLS
Method in brief: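 Healthy-donor plasma spiked with [3H]cholesteryl ester-labelled HDL3 (1,000 dpm/μL) was incubated with compound (DMF vehicle) for 4 hr at 37 °C or 4 °C. HDL was separated by MgCl2/dextran sulfate precipitation and supernatant radioactivity counted. IC50 is the concentration giving 50% inhibition of CETP activity.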

Row | IC50 (CETP [2]) | Structure (SMILES) | CETP activity (%) 2 (hr later) (CETP [1]; single oral dose 30 mg/kg) | CETP activity (%) 2 (hr later) (CETP [1]; single oral dose 10 mg/kg)
1 | 350 nM | CCN(CCCCC(=O)OC)c1cc2c(cc1CN(Cc1cc(C(F)(F)F)cc(C(F)(F)F)c1)c1nnn(C)n1)CCC2.Cl [Example 35, methyl 5-[N-(6-{[N′-[3,5-bis(trifluoromethyl)benzyl]-N′-(2-methyl-2H-tetrazol-5-yl)amino]methyl}indan-5-yl)-N-ethylamino]pentanoate hydrochloride] | 37.8% | 
2 |  | CCN(CCCCC(=O)OC)c1cc2c(cc1CN(Cc1cc(C#N)cc(C(F)(F)F)c1)c1nnn(C)n1)CCC2.Cl [Example 36] | 33.3% | 
3 | 800 nM | CCN(CCCCC(=O)OC)c1cc2c(cc1CN(Cc1cc(C(F)(F)F)cc(C(F)(F)F)c1)c1ccn(C)n1)CCC2.Cl [Example 37, methyl 5-[N-(6-[{N′-[3,5-bis(trifluoromethyl)benzyl]-N′-(1-methyl-1H-pyrazol-3-yl)amino]methyl}indan-5-yl)-N-ethylamino]pentanoate hydrochloride] | 45.4% | 
4 | 470 nM | CCN(CCCCC(=O)O)c1cc2c(cc1CN(Cc1cc(C(F)(F)F)cc(C(F)(F)F)c1)c1nnn(C)n1)CCC2.Cl [Example 38, 5-[N-(6-{[N′-[3,5-bis(trifluoromethyl)benzyl]-N′-(2-methyl-2H-tetrazol-5-yl)amino]methyl}indan-5-yl)-N-ethylamino]pentanoic acid hydrochloride] | 79.4% | 
5 | 880 nM | CCN(CCCCC(=O)O)c1cc2c(cc1CN(Cc1cc(C#N)cc(C(F)(F)F)c1)c1nnn(C)n1)CCC2.Cl [Example 39, 5-[N-(6-{[N′-(3-cyano-5-trifluoromethylbenzyl)-N′-(2-methyl-2H-tetrazol-5-yl)amino]methyl}indan-5-yl)-N-ethylamino]pentanoic acid hydrochloride] | 49.6% | 
6 | 390 nM | CCN(CCCCC(=O)O)c1cc2c(cc1CN(Cc1cc(C(F)(F)F)cc(C(F)(F)F)c1)c1cc(C)no1)CCC2.Cl [Example 40, 5-[N-(6-{[N′-[3,5-bis(trifluoromethyl)benzyl]-N′-(3-methylisoxazol-5-yl)amino]methyl}indan-5-yl)-N-ethylamino]pentanoic acid hydrochloride] | 59.5% | 
7 | 510 nM | CCN(CCCCC(=O)O)c1cc2c(cc1CN(Cc1cc(C(F)(F)F)cc(C(F)(F)F)c1)c1ccn(C)n1)CCC2.Cl [Example 41, 5-[N-(6-{[N′-[3,5-bis(trifluoromethyl)benzyl]-N′-(1-methyl-1H-pyrazol-3-yl)amino]methyl}indan-5-yl)-N-ethylamino]pentanoic acid hydrochloride] | 36.0% | 
8 | 690 nM | CCN(CCCCC(=O)O)c1ccc(OC(F)(F)F)cc1CN(Cc1cc(C(F)(F)F)cc(C(F)(F)F)c1)c1nnn(C)n1.Cl [Example 89, 5-[N-(2-{[N′-[3,5-bis(trifluoromethyl)benzyl]-N′-(2-methyl-2H-tetrazol-5-yl)amino]methyl}-4-trifluoromethoxyphenyl)-N-ethylamino]pentanoic acid hydrochloride] |  | 77.7%
9 | 560 nM | CCN(CCCCCC(=O)O)c1cc2c(cc1CN(Cc1cc(C(F)(F)F)cc(C(F)(F)F)c1)c1nnn(C)n1)CCC2.Cl [Example 91, 6-[N-(6-{[N′-[3,5-bis(trifluoromethyl)benzyl]-N′-(2-methyl-2H-tetrazol-5-yl)amino]methyl}indan-5-yl)-N-ethylamino]hexanoic acid hydrochloride] |  | 44.7%
10 | 190 nM | CCN(CCC(C)(C)CC(=O)O)c1cc2c(cc1CN(Cc1cc(C(F)(F)F)cc(C(F)(F)F)c1)c1nnn(C)n1)CCC2.Cl [Example 92, 5-[N-(6-{[N′-[3,5-bis(trifluoromethyl)benzyl]-N′-(2-methyl-2H-tetrazol-5-yl)amino]methyl}indan-5-yl)-N-ethylamino]-3,3-dimethylpentanoic acid hydrochloride] |  | 46.9%
11 | 310 nM | CCN(C[C@H]1CC[C@H](C(=O)O)CC1)c1ccc(C(F)(F)F)cc1CN(Cc1cc(C(F)(F)F)cc(C(F)(F)F)c1)c1nnn(C)n1.Cl [Example 96, trans-4-{[N-(2-{[N′-[3,5-bis(trifluoromethyl)benzyl]-N′-(2-methyl-2H-tetrazol-5-yl)amino]methyl}-4-trifluoromethylphenyl)-N-ethylamino]methyl}cyclohexanecarboxylic acid hydrochloride] |  | 41.1%
12 | 300 nM | CCN(C[C@H]1CC[C@H](C(=O)O)CC1)c1ccc(OC(F)(F)F)cc1CN(Cc1cc(C(F)(F)F)cc(C(F)(F)F)c1)c1nnn(C)n1.Cl [Example 98, trans-4-[{N-(2-{[N′-[3,5-bis(trifluoromethyl)benzyl]-N′-(2-methyl-2H-tetrazol-5-yl)amino]methyl}-4-trifluoromethoxyphenyl)-N-ethylamino]methyl}cyclohexanecarboxylic acid hydrochloride] |  | 43.3%
13 | 560 nM | CCN(CCC(C)(C)CC(=O)O)c1ccc(OC(F)(F)F)cc1CN(Cc1cc(C(F)(F)F)cc(C(F)(F)F)c1)c1ccn(C)n1.Cl [Example 107, 5-[N-(2-{[N′-[3,5-bis(trifluoromethyl)benzyl]-N′-(1-methyl-1H-pyrazol-3-yl)amino]methyl}-4-trifluoromethoxyphenyl)-N-ethylamino]-3,3-dimethylpentanoic acid hydrochloride] |  | 41.9%
14 | 250 nM | CCN(CCC(C)(C)CC(=O)O)c1ccc(OC(F)(F)F)cc1CN(Cc1cc(C(F)(F)F)cc(C(F)(F)F)c1)c1noc(C)n1.Cl [Example 108, 5-[N-(2-{[N′-[3,5-bis(trifluoromethyl)benzyl]-N′-(5-methyl-[1,2,4]oxadiazol-3-yl)amino]methyl}-4-trifluoromethoxyphenyl)-N-ethylamino]-3,3-dimethylpentanoic acid hydrochloride] |  | 53.8%
15 | 160 nM | CCN(C[C@H]1CC[C@H](C(=O)O)CC1)c1ccc(OC(F)(F)F)cc1CN(Cc1cc(C(F)(F)F)cc(C(F)(F)F)c1)c1noc(C)n1.Cl [Example 109, trans-4-{[N-(2-{[N′-[3,5-bis(trifluoromethyl)benzyl]-N′-(5-methyl-[1,2,4]oxadiazol-3-yl)amino]methyl}-4-trifluoromethoxyphenyl)-N-ethylamino]methyl}cyclohexanecarboxylic acid hydrochloride] |  | 42.8%
